Test results published in PubChem BioAssay (NCI).
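96-well plates; 48 h exposure; 5 concentrations. Endpoints by linear interpolation between flanking doses. Not reached: highest tested concentration assigned. TGI is the concentration that stops growth completely.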

How the values were obtained:
Assay in all cases: DTP human tumour cell line panel, 48 h
BT-549 breast = tested on: BT-549 breast
UACC-257 melanoma = tested on: UACC-257 melanoma
MALME-3M melanoma = tested on: MALME-3M melanoma
NCI-H23 lung = tested on: NCI-H23 lung
HCT-116 colon = tested on: HCT-116 colon
HT29 colon = tested on: HT29 colon
CCRF-CEM leukemia = tested on: CCRF-CEM leukemia
HCT-15 colon = tested on: HCT-15 colon
OVCAR-5 ovarian = tested on: OVCAR-5 ovarian
NCI-H522 lung = tested on: NCI-H522 lung
KM12 colon = tested on: KM12 colon
SK-OV-3 ovarian = tested on: SK-OV-3 ovarian
IGROV1 ovarian = tested on: IGROV1 ovarian
CAKI-1 renal = tested on: CAKI-1 renal
TK-10 renal = tested on: TK-10 renal
DU-145 prostate = tested on: DU-145 prostate
ACHN renal = tested on: ACHN renal
A549 NSCLC = tested on: A549 NSCLC
SR leukemia = tested on: SR leukemia
MDA-N = tested on: MDA-N
NCI-H460 lung = tested on: NCI-H460 lung
M14 melanoma = tested on: M14 melanoma
NCI-H226 lung = tested on: NCI-H226 lung
T-47D breast = tested on: T-47D breast
SF-268 CNS = tested on: SF-268 CNS
786-0 renal = tested on: 786-0 renal
HOP-62 NSCLC = tested on: HOP-62 NSCLC
NCI/ADR-RES ovarian = tested on: NCI/ADR-RES ovarian
SNB-75 CNS = tested on: SNB-75 CNS
SN12C renal = tested on: SN12C renal
OVCAR-8 ovarian = tested on: OVCAR-8 ovarian
SW-620 colon = tested on: SW-620 colon
OVCAR-3 ovarian = tested on: OVCAR-3 ovarian
K-562 leukemia = tested on: K-562 leukemia
MDA-MB-435 = tested on: MDA-MB-435
UO-31 renal = tested on: UO-31 renal
HS 578T breast = tested on: HS 578T breast
SF-295 CNS = tested on: SF-295 CNS
U251 CNS = tested on: U251 CNS
RXF 393 renal = tested on: RXF 393 renal
SNB-19 CNS = tested on: SNB-19 CNS
HL-60(TB) leukemia = tested on: HL-60(TB) leukemia
SF-539 CNS = tested on: SF-539 CNS
SK-MEL-2 melanoma = tested on: SK-MEL-2 melanoma
SK-MEL-28 melanoma = tested on: SK-MEL-28 melanoma
COLO 205 colon = tested on: COLO 205 colon
HCC-2998 colon = tested on: HCC-2998 colon
MDA-MB-231 breast = tested on: MDA-MB-231 breast
SK-MEL-5 melanoma = tested on: SK-MEL-5 melanoma
RPMI-8226 leukemia = tested on: RPMI-8226 leukemia
PC-3 prostate = tested on: PC-3 prostate
MCF7 breast = tested on: MCF7 breast
EKVX NSCLC = tested on: EKVX NSCLC
A498 renal = tested on: A498 renal
UACC-62 melanoma = tested on: UACC-62 melanoma
OVCAR-4 ovarian = tested on: OVCAR-4 ovarian
MOLT-4 leukemia = tested on: MOLT-4 leukemia
HOP-92 NSCLC = tested on: HOP-92 NSCLC
LOX IMVI melanoma = tested on: LOX IMVI melanoma

## NC(Cc1c[nH]c2ccccc12)P(=O)(O)O (centres undefined)
BT-549 breast
  TGI: > 100 µM
UACC-257 melanoma
  TGI: > 100 µM
MALME-3M melanoma
  TGI: > 100 µM
NCI-H23 lung
  TGI: > 100 µM
HCT-116 colon
  TGI: > 100 µM
HT29 colon
  TGI: > 100 µM
CCRF-CEM leukemia
  TGI: > 100 µM
HCT-15 colon
  TGI: > 100 µM
OVCAR-5 ovarian
  TGI: > 100 µM
NCI-H522 lung
  TGI: > 100 µM
KM12 colon
  TGI: > 100 µM
SK-OV-3 ovarian
  TGI: > 100 µM
IGROV1 ovarian
  TGI: > 100 µM
CAKI-1 renal
  TGI: > 100 µM
TK-10 renal
  TGI: > 100 µM
DU-145 prostate
  TGI: > 100 µM
ACHN renal
  TGI: > 100 µM
A549 NSCLC
  TGI: > 100 µM
SR leukemia
  TGI: > 100 µM
MDA-N
  TGI: > 100 µM
NCI-H460 lung
  TGI: > 100 µM
M14 melanoma
  TGI: > 100 µM
NCI-H226 lung
  TGI: > 100 µM
T-47D breast
  TGI: > 100 µM
SF-268 CNS
  TGI: > 100 µM
786-0 renal
  TGI: > 100 µM
HOP-62 NSCLC
  TGI: > 100 µM
NCI/ADR-RES ovarian
  TGI: > 100 µM
SNB-75 CNS
  TGI: > 100 µM
SN12C renal
  TGI: > 100 µM
OVCAR-8 ovarian
  TGI: > 100 µM
SW-620 colon
  TGI: > 100 µM
OVCAR-3 ovarian
  TGI: > 100 µM
K-562 leukemia
  TGI: > 100 µM
MDA-MB-435
  TGI: > 100 µM
UO-31 renal
  TGI: > 100 µM
HS 578T breast
  TGI: > 100 µM
SF-295 CNS
  TGI: > 100 µM
U251 CNS
  TGI: > 100 µM
RXF 393 renal
  TGI: > 100 µM
SNB-19 CNS
  TGI: > 100 µM
HL-60(TB) leukemia
  TGI: > 100 µM
SF-539 CNS
  TGI: > 100 µM
SK-MEL-2 melanoma
  TGI: > 100 µM
SK-MEL-28 melanoma
  TGI: > 100 µM
COLO 205 colon
  TGI: > 100 µM
HCC-2998 colon
  TGI: > 100 µM
MDA-MB-231 breast
  TGI: > 100 µM
SK-MEL-5 melanoma
  TGI: > 100 µM
RPMI-8226 leukemia
  TGI: > 100 µM
PC-3 prostate
  TGI: > 100 µM
MCF7 breast
  TGI: > 100 µM
EKVX NSCLC
  TGI: > 100 µM
A498 renal
  TGI: > 100 µM
UACC-62 melanoma
  TGI: > 100 µM
OVCAR-4 ovarian
  TGI: > 100 µM
MOLT-4 leukemia
  TGI: > 100 µM

## CCn1ncc(Oc2c(Cl)cc(N)cc2Cl)c(Cl)c1=O
BT-549 breast
  TGI: 91.1 µM
UACC-257 melanoma
  TGI: > 100 µM
MALME-3M melanoma
  TGI: > 100 µM
NCI-H23 lung
  TGI: > 100 µM
HCT-116 colon
  TGI: 80.8 µM
HT29 colon
  TGI: 58.5 µM
CCRF-CEM leukemia
  TGI: > 100 µM
HCT-15 colon
  TGI: > 100 µM
OVCAR-5 ovarian
  TGI: > 100 µM
KM12 colon
  TGI: > 100 µM
SK-OV-3 ovarian
  TGI: 77.9 µM
IGROV1 ovarian
  TGI: > 100 µM
CAKI-1 renal
  TGI: > 100 µM
TK-10 renal
  TGI: > 100 µM
DU-145 prostate
  TGI: > 100 µM
ACHN renal
  TGI: > 100 µM
A549 NSCLC
  TGI: > 100 µM
SR leukemia
  TGI: 80.7 µM
MDA-N
  TGI: 79.6 µM
HOP-92 NSCLC
  TGI: > 100 µM
NCI-H460 lung
  TGI: > 100 µM
M14 melanoma
  TGI: > 100 µM
NCI-H226 lung
  TGI: > 100 µM
T-47D breast
  TGI: > 100 µM
SF-268 CNS
  TGI: > 100 µM
786-0 renal
  TGI: > 100 µM
HOP-62 NSCLC
  TGI: > 100 µM
NCI/ADR-RES ovarian
  TGI: > 100 µM
SNB-75 CNS
  TGI: > 100 µM
SN12C renal
  TGI: > 100 µM
OVCAR-8 ovarian
  TGI: > 100 µM
SW-620 colon
  TGI: > 100 µM
OVCAR-3 ovarian
  TGI: 40.7 µM
K-562 leukemia
  TGI: > 100 µM
MDA-MB-435
  TGI: > 100 µM
UO-31 renal
  TGI: > 100 µM
HS 578T breast
  TGI: 67.6 µM
SF-295 CNS
  TGI: 63.6 µM
U251 CNS
  TGI: > 100 µM
RXF 393 renal
  TGI: > 100 µM
SNB-19 CNS
  TGI: > 100 µM
HL-60(TB) leukemia
  TGI: > 100 µM
SF-539 CNS
  TGI: > 100 µM
SK-MEL-2 melanoma
  TGI: > 100 µM
SK-MEL-28 melanoma
  TGI: > 100 µM
COLO 205 colon
  TGI: 46.9 µM
HCC-2998 colon
  TGI: > 100 µM
MDA-MB-231 breast
  TGI: > 100 µM
SK-MEL-5 melanoma
  TGI: 65 µM
RPMI-8226 leukemia
  TGI: > 100 µM
PC-3 prostate
  TGI: > 100 µM
MCF7 breast
  TGI: > 100 µM
EKVX NSCLC
  TGI: > 100 µM
A498 renal
  TGI: > 100 µM
UACC-62 melanoma
  TGI: > 100 µM
LOX IMVI melanoma
  TGI: > 100 µM
OVCAR-4 ovarian
  TGI: > 100 µM
